{
  "source": "patent US20180021360A1",
  "about": "“Combination Therapy Regimen For Treatment Of Selected HCV Genotypes” (JANSSEN PHARMACEUTICALS, INC., priority 2016, published 2018)",
  "key": {"[1]": {"assay": "PK of single agents vs fixed dose combinations, single dose in healthy volunteers (Example 13)", "assay_type": "in vivo, human", "protocol": "SMV (100 mg), ODV (50 mg), and Compound (III) (800 mg) were administered as three different formulations or together as single doses in vivo to healthy volunteers. The arms of the study included: • Arm 1 (Reference Arm): Single oral doses of single agents, one SMV 100-mg capsule, one ODV 50-mg tablet as granule layered solid dispersion with copovidone and poloxamers, and two Compound (III) 400-mg tablets, administered together. • Arm 2: Single oral dose of fixed dose combination (FDC02): SMV 100 mg+ODV 50 mg as a spray dried solid dispersion with HPMC-AS L in a ratio ODV/HPMC-AS L 1/1 w/w+Compound (III) 800 mg • Arm 3: Single oral dose of fixed dose combination (FDC04): SMV 100 mg+ODV 50 mg as a spray dried solid dispersion with HPMC-AS L in a ratio ODV/HPMC-AS L 1/3 w/w+Compound (III) 800 mg • Arm 4: Single oral dose of fixed dose combination (FDC01): SMV 100 mg+ODV 50 mg as a spray dried solid dispersion with copovidone and poloxamers+Compound (III) 800 mg\nPK parameters, including Cmax, tmax, AUClast, and AUC∞ were measured for Compound (III), ODV, SMV, and metabolites Compound A-1 and Compound A-3 for each Arm of the study. Arms that included fixed dose combinations (FDC) (Arm 2, Arm 3, and Arm 4) were then compared to a single oral dose (Arm 1, the reference Arm). Table 9, Table 10, Table 11, Table 12 and Table 13 display relevant PK parameters and FIG. 9, FIG. 10, FIG. 11, FIG. 12, and FIG. 13 depict the plasma concentration over time of SMV, ODV, Compound A-1, and Compound A-3 for each Arm of the study."}, "[2]": {"assay": "Phase-1 drug-drug interaction study of Odalasvir, Simeprevir and Compound (III) in healthy volunteers", "assay_type": "in vivo, human", "excerpt": "The following daily doses were employed:"}, "BSEP": {"biological_target": "BSEP (Homo sapiens, UniProt O95342)", "sequence (O95342 whole entry)": "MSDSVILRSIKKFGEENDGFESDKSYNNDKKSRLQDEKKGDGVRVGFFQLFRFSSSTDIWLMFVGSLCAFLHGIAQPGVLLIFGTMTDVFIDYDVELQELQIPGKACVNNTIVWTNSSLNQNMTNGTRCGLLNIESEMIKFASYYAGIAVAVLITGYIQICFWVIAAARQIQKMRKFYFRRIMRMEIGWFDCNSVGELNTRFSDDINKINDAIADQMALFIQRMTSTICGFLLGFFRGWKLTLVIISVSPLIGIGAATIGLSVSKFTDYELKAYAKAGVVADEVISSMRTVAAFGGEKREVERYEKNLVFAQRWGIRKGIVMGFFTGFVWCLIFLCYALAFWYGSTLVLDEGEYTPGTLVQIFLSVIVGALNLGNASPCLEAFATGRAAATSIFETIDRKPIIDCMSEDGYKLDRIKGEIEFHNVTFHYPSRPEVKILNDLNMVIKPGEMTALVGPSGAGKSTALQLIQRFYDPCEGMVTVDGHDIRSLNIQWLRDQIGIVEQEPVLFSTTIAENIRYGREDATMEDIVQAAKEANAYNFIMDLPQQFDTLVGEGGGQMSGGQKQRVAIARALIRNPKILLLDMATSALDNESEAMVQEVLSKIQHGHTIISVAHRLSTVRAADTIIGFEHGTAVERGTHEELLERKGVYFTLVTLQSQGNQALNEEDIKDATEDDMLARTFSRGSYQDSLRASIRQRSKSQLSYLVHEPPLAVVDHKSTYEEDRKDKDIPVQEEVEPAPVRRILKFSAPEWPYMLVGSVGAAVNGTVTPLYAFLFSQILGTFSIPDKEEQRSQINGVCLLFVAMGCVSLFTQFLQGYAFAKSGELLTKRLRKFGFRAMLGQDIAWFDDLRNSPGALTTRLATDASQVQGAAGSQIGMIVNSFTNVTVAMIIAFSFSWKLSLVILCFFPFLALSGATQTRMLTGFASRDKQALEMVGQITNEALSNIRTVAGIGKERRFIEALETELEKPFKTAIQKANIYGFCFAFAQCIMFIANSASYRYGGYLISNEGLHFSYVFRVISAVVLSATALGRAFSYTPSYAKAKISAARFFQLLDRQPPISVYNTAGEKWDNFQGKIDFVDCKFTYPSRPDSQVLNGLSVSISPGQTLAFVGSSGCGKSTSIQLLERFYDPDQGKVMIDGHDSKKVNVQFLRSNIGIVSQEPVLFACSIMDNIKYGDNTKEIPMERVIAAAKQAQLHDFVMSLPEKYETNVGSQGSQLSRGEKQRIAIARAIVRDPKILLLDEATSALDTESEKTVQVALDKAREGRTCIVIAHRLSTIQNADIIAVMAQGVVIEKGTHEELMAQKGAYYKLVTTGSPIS", "conditions": "cited from earlier work"}},
  "data": [
    {"smiles": "COC(=O)N[C@H](C(=O)N1[C@H](c2nc3cc(-c4cc5ccc4CCc4ccc(c(-c6ccc7[nH]c([C@@H]8C[C@@H]9CCCC[C@@H]9N8C(=O)[C@@H](NC(=O)OC)C(C)C)nc7c6)c4)CC5)ccc3[nH]2)C[C@@H]2CCCC[C@@H]21)C(C)C", "note": "[Odalasvir, methyl [(2,)-1-[(2S,3aS,7aS)-2-[6-[11-[2-[(2S,3aS,7aS)-1-[(2S)-2-[(methoxycarbonyl)amino]-3-methylbutanoyl]octahydro-1H-indol-2-yl]-1H-benzimidazol-6-yl]tricyclo[8.2.2.2^4,7]hexadeca-1(12),4,6,10,13,15-hexaen-5-yl]-1H-benzimidazol-2-yl]octahydro-1H-indol-1-yl]-3-methyl-1-oxobutan-2-yl]carbamate]", "values": [
      {"measurement": "t1/2term", "setting": "[1]; Arm 1 (reference): single agents, mean ± SD", "result": "168.6 ± 21.7", "unit": "h"},
      {"measurement": "Least Square Means Ratio, Cmax", "setting": "[1]; Arm 2 (FDC02) vs reference", "result": 81.00, "unit": "%"},
      {"measurement": "AUC∞", "setting": "[1]; Arm 2: FDC02, mean ± SD", "result": "7040 ± 2130", "unit": "ng·h/mL"},
      {"measurement": "t1/2term", "setting": "[1]; Arm 2: FDC02, mean ± SD", "result": "169.0 ± 24.5", "unit": "h"},
      {"measurement": "t1/2term", "setting": "[1]; Arm 3: FDC04, mean ± SD", "result": "176.0 ± 29.5", "unit": "h"},
      {"measurement": "Cmax", "setting": "[1]; Arm 4: FDC01 (SMV 100 mg + ODV 50 mg spray dried with copovidone and poloxamers + Compound (III) 800 mg), mean ± SD", "result": "298 ± 81.7", "unit": "ng/mL"},
      {"measurement": "AUClast", "setting": "[1]; Arm 4: FDC01, mean ± SD", "result": "11127 ± 3354", "unit": "ng·h/mL"},
      {"measurement": "t1/2term", "setting": "[1]; Arm 4: FDC01, mean ± SD", "result": "167.8 ± 22.4", "unit": "h"},
      {"measurement": "effect of Compound (III) on SMV or ODV", "setting": "[2]; DDI study results", "result": "no apparent effect"},
      {"measurement": "increase of exposure caused by SMV", "setting": "[2]; DDI study results", "result": 1.6, "unit": "×"},
      {"measurement": "increase of exposure, effect of the three Compounds", "setting": "[2]; DDI study results", "result": 1.5, "unit": "×"},
      {"measurement": "increase of exposure on co-administration of Compounds I, II and III", "setting": "[2]; human in vivo study (Example 1)", "result": 1.5, "unit": "times"},
      {"measurement": "effect of Compound (III) on bioavailability of SMV or ODV", "setting": "[2]; human, in vivo", "result": "does not alter"},
      {"measurement": "increase of exposure of ODV by SMV", "setting": "[2]; human, in vivo", "result": 1.6, "unit": "fold"},
      {"measurement": "in vitro inhibition of BSEP", "setting": "BSEP", "result": "no inhibition"}
    ]}
  ]
}
